Consider two compounds from US7754740B2, “1H-indole-3-carboxylic acid derivatives and their use as PPAR agonists” (Merck Patent GmbH, priority 2005, dated 2010).

Each structure is given as a SMILES string.

This test addresses T1, chimeric protein PPARγ-Gal4 (Homo sapiens, UniProt P37231).
T1 construct: Gal4 (yeast transcription factor); expressed in transfected cells; host or cells: CV-1 cells (monkey kidney cells)
T1 sequence (P37231 238-503 limits assumed): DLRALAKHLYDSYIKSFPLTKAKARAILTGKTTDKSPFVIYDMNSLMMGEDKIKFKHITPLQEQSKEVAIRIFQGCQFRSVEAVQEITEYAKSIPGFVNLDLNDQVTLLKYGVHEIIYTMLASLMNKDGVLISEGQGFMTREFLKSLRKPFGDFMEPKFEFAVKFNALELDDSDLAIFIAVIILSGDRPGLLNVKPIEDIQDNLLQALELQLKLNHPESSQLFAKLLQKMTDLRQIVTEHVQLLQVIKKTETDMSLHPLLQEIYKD
Briefly: PPARγ-Gal4 transactivation (luciferase reporter) test in cotransfected CV-1 cells. In kind it is cell-based. As for the experimental part: The measurement of the PPAR activation was performed according to a technique described by Lehmann et al. (J. Biol. Chem., 270, (1995),
CV-1 cells (monkey kidney cells) are cotransfected with an expression vector for the chimeric protein PPARγ-Gal4 and with a “reporter” plasmid that allows expression of the luciferase gene placed under the control of a promoter comprising Gal4 response elements.
The cells are seeded in 96-well microplates and cotransfected using a commercial reagent with the reporter plasmid (pG5-tk-pGL3) and the expression vector for the chimeric protein (PPARγ-Gal4). After incubation for 4 hours, whole culture medium (comprising 10% foetal calf serum) is added to the wells. After 24 hours, the medium is removed and replaced with whole medium comprising the test products. The products are left in contact with the cells for 18 hours. The cells are then lysed and the luciferase activity is measured using a luminometer. A PPARγ activation factor can then be calculated by means of the activation of the expression of the reporter gene induced by the product (relative to the control cells that have received no product).
In the absence of the PPARγ ligand binding domain (vector expressing Gal4 alone), the luciferase activity measured in the presence of an agonist is zero.
The following transactivation result was obtained with a concentration of 50 μM on PPARγ.
The transactivation test using the expression of a chimeric protein Gal-4-PPARγ makes it possible to determine also whether an agonist functions as a “full” agonist or as a “partial” agonist in this system.
An agonist is “partial” in this system if it induces a weaker response, i.e. it has lower efficacy, than rosiglitazone, which is a “full” agonist. In concrete terms, in our system, the transactivation obtained at the plateau with a partial agonist will be between 20% and 50% of the maximum response (efficacy) at the plateau of rosiglitazone.
Background: In a reporter assay the amount or activity of a reporter protein is the signal.

As to `CCOC(=O)c1c(C)n(CCOC)c2cc(CCCC3CCCC3)c(OCCCC(=O)O)cc12` [Example 31, ethyl 5-(3-carboxypropoxy)-6-(3-cyclopentylpropyl)-1-(2-methoxyethyl)-2-methyl-1H-indole-3-carboxylate], the “Concentration to reach the maximum stimulation of the PPARγ chimeric protein” value (Gal4-PPARγ transactivation test, CV-1 cells) is 1 µM. Further, the Emax (transactivation at the plateau as % of the maximum response (efficacy) of rosiglitazone, CV-1 cells, read-out: Maximum stimulation of the PPARγ chimeric protein obtained with rosiglitazone) stood at 24%. With `CCOC(=O)c1c(C)n(Cc2ccccc2)c2cc(-c3cccnc3)c(OCCCC(=O)O)cc12` [Example 4, Ethyl-benzyl-5-(3-carboxypropoxy)-2-methyl-6-pyrid-3-yl-1H-indole-3-carboxylate], under “50 μM, CV-1 cells (monkey kidney cells), 18 hours contact, luciferase reporter, relative to control cells without product (= 1)”, the “Activation factor of the chimeric protein PPARγ-Gal4” value was determined as 17.
